Measurements published in PMC6984391, “Anion carriers as potential treatments for cystic fibrosis: transport in cystic fibrosis cells, and additivity to channel-targeting drugs” (Chemical Science, 2019).
Where two headings read alike, the source gives them in different places.

Legend:
[1] = design: method as in ref [16 and 25], [20], [21], [22], [23], [24], [29] (Reference column); details: 1H NMR titrations with Bu4N^+Cl^– in DMSO-d6/H2O (200 : 1) at 298 K; ref [16 and 25], [20], [21], [22], [23], [24], [29]; cited from earlier work
YFP-FRT cells = assay: YFP fluorescence plate reader assay of anion transport in YFP-FRT cells; format: cell-based, Fischer rat; details: for Corrected absolute initial slope |dF/dT|: transporter 50 μM, DMSO 0.5% v/v, DMSO-only subtracted, I^– 100 mM; for anion transport activity in YFP-FRT cells (in words): 50 μM
Protocol: We treated YFP-FRT cells with anionophores (final concentration, 1–50 μM) or the vehicle DMSO (0.1–0.5% v/v) by direct addition to the phosphate-buffered saline (PBS) bathing the cells. After incubating YFP-FRT cells with anionophores for 10 minutes at 37 °C, we evaluated anion transport activity by adding I^– (100 mM), using a PBS iodide solution with Cl^– replaced by I^–, and following cell fluorescence for 14 s. FRT cells are relatively impermeable to anions because they lack key ion channels found in epithelial cells, including CFTR.[33] Thus, in the absence of anionophore, iodide cannot enter YFP-FRT cells and no quenching of fluorescence occurs. By contrast, in the presence of an anionophore, iodide influx occurs leading to fluorescence quenching.[29]
To quantify anion transport by different anionophores, we fitted first order exponential functions to the iodide-induced fluorescence decay to measure the initial slope, averaging values over multiple experiments. Fig. 2b and Table 1 summarise the data. Consistent with our previous results,[29] we observed a wide range of anion transport activity. […] We therefore selected for further study 11, 12, 15 and 19.
FRT cells stably expressing the halide sensor YFP-H148Q/I152L6 were generous gifts of AS Verkman (University of California, San Francisco), while CFBE41o- cells7 stably expressing YFP (YFP-CFBE cells) were a generous gift of LJV Galietta (Telethon Institute for […]
Genetics and Medicine). […]
U ml-1 penicillin and […] streptomycin. All cells were incubated at 37 °C in a humidified atmosphere with 5% CO2. […]
Fluorescence plate reader assay […]
quenching of YFP fluorescence at 37 °C using a microplate reader following the method of Galietta et al..9 The microplate reader (model: FLUORstar Omega; BMG LABTECH Ltd., Aylesbury, UK) was equipped with a syringe pump and excitation (500 ± 10 nm) and emission (535 ± 15 nm) filters (Chroma Technology GmbH, Olching, Germany). After washing cells twice with PBS (composition (mM): 137 NaCl, 2.7 KCl, 8.1 Na2HPO4, 1.5 KH2PO4, 1 CaCl2 and 0.5 MgCl2, pH 7.40), cells were incubated with test anionophores (1 – 50 µM) or the vehicle (DMSO [0.1 – 0.5% v v-1]) in 40 µl of PBS for 10 – 120 minutes according to the experimental design. Other compounds, including forskolin, ivacaftor and channel inhibitors were added to […]
the PBS bathing cells 10 minutes prior to PBS iodide addition, whereas UTP was added to cells with the PBS iodide solution. Fluorescence was measured for 14 seconds; 2 seconds before and 12 seconds after injection of 110 µl PBS iodide solution (137 mM Cl- replaced by I-) into each well (to obtain a final concentration of I- of 100 mM).
We expressed cell fluorescence values (F) relative to the fluorescence value immediately before I- injection (F0), excluding the initial decrease, which likely represents the quenching of extracellular YFP released from cells and signal reduction accompanying the increase in solution volume bathing cells. To quantify anion transport by test anionophores, we determined the initial slope of the fluorescence decay following I - addition by fitting first order exponential functions to the last 12 seconds of each fluorescence recording. In each experim ent, n values represent the mean of two replicates and all treatments were tested at least three times using different microplates. […]
FRT cells was selected and the cells were perfused with (i) PBS for 5 minutes then (ii) PBS containing I- (10 mM) (made by preparing PBS with 127 mM NaCl to maintain osmolarity) for 5 minutes and finally (iii) PBS for 30 minutes to remove thoroughly I- from the perfusion chamber. YFP-FRT cells were repeatedly treated with I- (10 mM) and then washed with PBS […]
During all interventions, the rate of solution perfusion was 8 – 10 ml min-1; temperature was 37 °C and except for the first

[2] = design: method as in PMID 22461434, PMID 21846096, PMID 29786913; details: mol% carrier to lipid for 50% Cl^– efflux in 270 s; 490 mM NaCl inside, 490 mM NaNO3 outside; ref [22], [16 and 25]; cited from earlier work
[3] = Cl-/NO3- exchange in LUVs with preincorporated anionophore (lucigenin method); format: biochemical; details: transporter preincorporated in LUVs (70% POPC + 30% cholesterol), 25 mM NaCl gradient, 225 mM NaNO3; new compound or new data
Protocol: The four new anionophores were tested for affinity to Cl^– (in CHCl3 and DMSO, with tetra-alkylammonium counter-ions), and for anion transport (Cl^–/NO3^– exchange) when preloaded into 200 nm large unilamellar vesicles (LUVs). The latter assay was performed using the well-established “lucigenin method”[30] in which Cl^– influx into vesicles is followed through quenching of fluorescence from the halide-sensitive fluorophore lucigenin. The results are listed in Table 1, accompanied by corresponding values for the previously-reported compounds where available. […] In this test, anion transport by anionophores delivered externally to LUVs is compared with their action when preloaded into LUV membranes.[24],[29],[32]
3. Transport studies in vesicles
Transport measurements in vesicles with preincorporated anionophores.
1-Palmitoyl-2-oleoyl-sn-glycero-3-phosphocholine (POPC) was obtained from Avanti® Polar Lipids, Inc. An extrusion apparatus and 200 nm polycarbonate membranes were obtained from GC Technology Ltd. All lipid and receptor solutions were prepared using chloroform that had been deacidified by passage through a flash chromatography column containing basic alumina, and all aqueous solutions were prepared using deionised water that had been passed through a Millipore filtration system.
POPC and cholesterol solutions (~10 mM) in deacidified chloroform were combined with a solution of transporter in methanol or deacidified chloroform in a 5 mL round bottomed flask.
Volumes of the aliquots were calculated from the concentrations of the lipid solution to obtain a POPC to cholesterol ratio of 7:3 (for instance by combining 4.20 µmol POPC and 1.80 µmol cholesterol). The ratio of anionophore to lipid (POPC + cholesterol) was either 1:2500 or 1:25000, as specified in the experiments. The solvents from the lipid/receptor mixture were evaporated under a stream of N2 and the lipid film was dried under high vacuum for 1 h. The residue was hydrated with 500 µL of an aqueous solution of 10,10'-dimethyl-9,9'-biacridinium nitrate (lucigenin, 0.8 mM) and NaNO3 (225 mM), sonicated for 30 s and stirred for 1 h to give heterogeneous vesicles. Multilamellar vesicles were disrupted by 10 freeze-thaw cycles and then the solution was diluted to 1 mL (by adding 0.5 mL of 225 mM NaNO3) and carefully extruded (29 times) through a polycarbonate membrane (200 nm pore size) to give a uniform distribution of LUVs with an average diameter of ~200 nm.2 The external lucigenin was removed by passing the solution though a size exclusion column (containing ~2 g Sephadex 50G, eluted with 225 mM NaNO3). The collected vesicles were further diluted with NaNO3 solution (225 mM) to obtain a vesicle solution with 0.4 mM lipid concentration. 3.00 mL of this vesicle solution was placed in a quartz cuvette with a small stir bar and the fluorescence intensity (excitation at 450 nm, emission at 535 nm) was measured over time at 25 °C, using a PerkinElmer LS45 fluorescence spectrometer. 75 µL of aqueous NaCl (1.0 M in 225 mM NaNO3, to give an overall external chloride concentration of 25 mM) was added ~30 seconds after the start of the experiment and the fluorescence intensity was measured for another 14 […]
Fluorescence data were collected for at least four replicate experiments. The plateau (before addition of chloride) and the vertical drop (the first 1-2.5 seconds after chloride addition, due to quenching of external lucigenin) were removed. Next the data were normalized: all fluorescence values (F) were divided by the fluorescence value before addition of chloride (F0).
Initial rates (I) were obtained from fluorescence -decay curves (0-500 s) by fitting their inverse (F0/F) to a double exponential decay function:
Differentiating this gives F = abe−bt + cde−dt […]
and substituting t = 0 gives the following equation for initial rate: I = ab + cd Specific initial rates [I] were obtained by dividing the initial rates by the anionophore to lipid […]

[4] = design: method as in ref [20], [21], [23], [24], [29] (Reference column); details: transporter preincorporated in LUVs (70% POPC + 30% cholesterol), 25 mM NaCl gradient, 225 mM NaNO3; ref [20], [21], [23], [24], [29]; cited from earlier work
[5] = Affinity to Cl- in chloroform by extraction of Et4N+Cl- from water; format: binding; details: extraction of Et4N^+Cl^– from water into chloroform at 303 K; new compound or new data
Protocol: Measurement of affinities to Et4N+Cl- in chloroform through extraction from […]
This method is adapted from Clare et al..4 The Et4N+Cl- salt was obtained from Sigma Aldrich and dried under vacuum overnight prior to solution preparation using deionised water that had been passed through a Millipore filtration system. All host solutions were prepared using chloroform that had been deacidified by passage through a flash chromatography column containing basic alumina.
A solution of host in deacidified chloroform was combined with 10 mL of aqueous Et4N+Cl-guest solution in a sample tube (30 mL). Concentrations and volumes are specified in Table
S1. A magnetic stirring bar (2 cm) was added to the tube and the lower half was immersed in a water bath heated to 303 K, while the contents were stirred vigorously to achieve good mixing of the two phases. After 30 minutes, stirring was stopped and the two phases were allowed to separate. The majority of the aqueous phase was then removed using a pipette and the remaining organic phase was centrifuged for 10 minutes at 4000 rpm. The chloroform solution was then filtered through Whatman 1PS hydrophobic filter paper to remove any remaining aqueous phase. Solvent from the filtrate was then removed in vacuo and the solid was further dried under vacuum. The resulting solids from the extraction experiments were dissolved in acetone-d6 and the solutions were analysed with 1H NMR spectroscopy.
A value for the molar ratio (R) was determined by integrating the signal at δ = 3.5 ppm (CH2 of Et4N+Cl-) against one of the receptor signals.
The values for R obtained from the 1H NMR spectra were used to calculate values for the equilibrium extraction constants Ke:
Horg + Xaq− + Yaq+ ⇌HX−Yorg+ Ke = org […]
To convert the extraction constants Ke into association constants Ka it is necessary to obtain the distribution constants Kd for the substrates between aqueous and organic phases:
The Kd value for tetraethylammonium chloride partitioning between water and chloroform has been determined and reported previously to be 1.269 × 10-5 M-1.5
The binding constant Ka is then calculated from Ke and Kd:
H + X−Y+ ⇌ HX−Y+ K = org = e […]
When [G] > 100 mM, the amount of salt that migrates from the aqueous phase into the organic phase without assistance of the host has to be taken into account by correcting the measured […]
Table S1. Overview of the conditions and results from the extraction experiments Receptor [H] (mM) [G] (mM) Vorg (mL) Vaq (mL) Rmeasured Ka (M-1)

SMILES	K a to Cl^– in DMSO [1]	Corrected absolute initial slope |dF/dT| (YFP-FRT cells)	EC50, 270 s [2]	Specific initial rate [I] [3]	Specific initial rate [I] [4]	K a to Cl^– in CHCl3 [5]	anion transport activity in YFP-FRT cells (in words) (YFP-FRT cells)
O=c1c(Nc2ccccc2)c(Nc2ccccc2)c1=O [Compound 1]	2.6 × 10^2 M^–1	0 ×10^–3 s^–1	1.38 mol%				
O=c1c(Nc2ccc(C(F)(F)F)cc2)c(Nc2ccc(C(F)(F)F)cc2)c1=O [Compound 2]	4.6 × 10^2 M^–1	0.3 ×10^–3 s^–1	0.06 mol%				
O=c1c(Nc2cc(C(F)(F)F)cc(C(F)(F)F)c2)c(Nc2cc(C(F)(F)F)cc(C(F)(F)F)c2)c1=O [Compound 3]	6.4 × 10^2 M^–1	0 ×10^–3 s^–1	0.01 mol%	75 ^b s^–1			
CCc1c(CNC(=S)Nc2ccc([N+](=O)[O-])cc2)c(CC)c(CNC(=S)Nc2ccc([N+](=O)[O-])cc2)c(CC)c1CNC(=S)Nc1ccc([N+](=O)[O-])cc1 [Compound 4]	3.8 × 10^2 M^–1	0.2 ×10^–3 s^–1			5 s^–1		
CCc1c(CNC(=O)Nc2cc(C(F)(F)F)cc(C(F)(F)F)c2)c(CC)c(CNC(=O)Nc2cc(C(F)(F)F)cc(C(F)(F)F)c2)c(CC)c1CNC(=O)Nc1cc(C(F)(F)F)cc(C(F)(F)F)c1 [Compound 7]	3.9 × 10^2 M^–1	0.2 ×10^–3 s^–1			50 s^–1		
S=C(NCCN(CCNC(=S)Nc1ccccc1)CCNC(=S)Nc1ccccc1)Nc1ccccc1 [Compound 17]	1.8 × 10^3 M^–1	0.5 ×10^–3 s^–1	0.31 mol%			5.2 × 10^5 ^b M^–1	
O=C(Nc1ccc([N+](=O)[O-])cc1)Nc1cccc2cc3cccc(NC(=O)Nc4ccc([N+](=O)[O-])cc4)c3cc12 [Compound 20]	2.6 × 10^3 M^–1	8.4 ×10^–3 s^–1			2100 s^–1		intermediate levels
O=C(Nc1ccc(C(F)(F)F)cc1)Nc1cccc2cc3cccc(NC(=O)Nc4ccc(C(F)(F)F)cc4)c3cc12 [Compound 21]	2.2 × 10^3 M^–1	1.7 ×10^–3 s^–1			1200 s^–1		
O=C(Nc1cc(C(F)(F)F)cc(C(F)(F)F)c1)Nc1cccc2cc3cccc(NC(=O)Nc4cc(C(F)(F)F)cc(C(F)(F)F)c4)c3cc12 [Compound 22]	3.0 × 10^3 M^–1	9.0 ×10^–3 s^–1			1900 s^–1		intermediate levels
